Consider one molecule from article PMC4414309, “Target Modulation by a Kinase Inhibitor Engineered to Induce a Tandem Blockade of the Epidermal Growth Factor Receptor (EGFR) and c-Src: The Concept of Type III Combi-Targeting” (PLoS ONE, 2015).

Assay [1] has as its system MDA-MB-231 cells. Briefly: Boyden chamber invasion assay, MDA-MB-231. The format is cell-based, human. To be noted: MDA-MB-231, concentration as low as 0.1 μM, 24h. The protocol: The invasive property of MDA-MB-231 and 4T1 cells was determined using the Boyden-chamber invasion assay. Cells suspended in serum-free media were plated (120–150,000 cells/well) onto polycarbonate transwell inserts (8 μm pore size, BD Biosciences) coated with matrigel (6%) (BD Biosciences), separating the top and bottom chambers (50 μl/filter). […] The invasive property of cells was observed 24h after treatment by fixing cells in formalin and staining with 0.1% crystal violet (Sigma-Aldrich Canada Ltd). Cells attached on the upper surface of the insert (top chamber) were removed by gently scraping away with a cotton swab, whereas those that invaded onto the lower side of the insert were observed using a microscope (Leica DM IL inverted microscope, 10X). Images of five non-overlapping fields of invading cells were captured using the Leica DFC300FX camera and quantification was done using the Scion Image Analysis (3.53.0.0) software and ImageJ 1.46r software. The results were expressed in terms of percentage of invading cells relative to control and the bar graphs represent the average of three independent experiments.

Assay [2] deals with 4T1 cells. Description: Wound-healing assay, 4T1. The class given is cell-based, mouse. To be noted: 4T1, 0.1 μM, 24h drug exposure. The protocol: MDA-MB-231 and 4T1 cells were plated in 6-well plates (500,000 cells/well) and allowed to attach overnight (37°C, 5% CO2). The following day, media was removed and a cross scratch was made in the middle of the cell monolayer. […] The scratch was visualized at two different time points (0 and 24h) using the Leica DM IL inverted microscope (10X) and images were obtained using the Leica DFC300FX camera.

Assay [3] has as its system c-Src phosphorylation in 4T1 tumours. Description: Pharmacodynamics in 4T1 tumours, c-Src phosphorylation. The conditions noted are these: i.v., AL776 40 mg/kg, gefitinib + dasatinib 20 mg/kg each.
Procedure: Mice were implanted with 4T1 mammary tumour cells, 15 million cells/flank (suspended in 200 μL PBS), subcutaneously.
Mice were sacrificed 1h or 24h after treatment and their tumours were collected and snap frozen at -80°C for further analysis using western blots. Tumours were crushed using a mortar/pestle chilled using liquid nitrogen and lysed with RIPA buffer diluted to a 1X concentration and supplemented with 1mM PMSF (Cell Signaling Technology, USA). Western blot analysis was carried out with the tumour samples, similar to the method described earlier.

On to `Cc1nc(Nc2ncc(C(=O)Nc3c(C)cccc3Cl)s2)cc(N2CCN(CCOC(=O)CCC(=O)OCCN(C)Cc3ccc(C(=O)Nc4ccc5ncnc(Nc6cccc(Cl)c6)c5c4)cc3)CC2)n1` [AL776], for which the Effect on invasion entry in assay [1] was “strongly inhibited invasion”. For the same molecule, the Effect on wound-closure result in assay [2] is listed as “blocked wound-closure”. Besides, the entries for the “Inhibition of c-Src phosphorylation in tumours” value in assay [3] (1h post-administration) and in assay [3] (24 h post-treatment) were “strong blockade” and “reversed”, respectively.
